“Also recorded” adds a separate entry of the source. Read-outs that look alike come from different tables or passages of the source. Bridge positions count the residues as written; N and C are the ends. Square brackets hold non-standard residues; d marks the D form. Peptide text beside a SMILES is read from it. * marks the point of attachment. X1 = CC[C@H](C)CCCCC(=O)*; Dab = NCC[C@H](N)C(=O)O
What was measured:
E. coli PmrA^G53E = format: cell-based; settings: for MIC: LB + 0.0005% tween-80, overnight 37 °C
Protocol: (§1) Bacterial strains and plasmids are listed in SI Table S5. LB growth media was prepared according to manufacturer’s instructions and supplemented with 0.2% arabinose and carbenicillin (50 μg/mL) for the strains containing pBAD24-mcr1 plasmid. Cultures were started by inoculating 3 ml LB with 1–2 colonies from fresh overnight plates and grown at 37 °C until in log phase. Modified minimal inhibitory concentration (MIC) assays were performed in 96-well round bottom polystyrene plates (Corning) with a final volume of 100 µl in LB supplemented with tween-80 at 0.0005%. […] Polymyxin B sulfate (TCI Co. Ltd), polymyxin B nonapeptide (PMBN) (Sigma), and brevicidine (Genentech) were diluted directly in the assay plates. Bacteria were diluted in LB with tween-80 0.0005% and added to a final OD600 of 0.0005. Growth was measured via OD600 on a SpectraMax M5 plate reader after overnight static growth at 37 °C with humidity.

E. coli mcr1 = format: cell-based; settings: for MIC: strain carrying plasmid encoding mcr-1, LB + 0.2% arabinose, carbenicillin, 0.0005% tween-80, overnight 37 °C
Protocol: as §1

E. coli WT+rifampicin = assay: Rifampicin potentiation / outer membrane permeability, wild-type E. coli; format: cell-based
Protocol: as §1

wild-type E. coli cells = assay: Whole cell SPR, wild-type E. coli; format: binding
Protocol: Bacterial strains were grown in LB or LB with 0.2% arabinose and carbenicillin (50 μg/mL) to log phase (OD600 approximately 0.4–0.6), centrifuged for 10 min at 2500 × g (3500 rpm using a tabletop centrifuge), and re-suspended in PBS to a final OD600 of approximately 5. SPR on whole bacterial cells was performed and analyzed as described for OMVs on C1 chip, but with an additional carry-over wash prior to the capture. Regeneration of the chip after whole cell binding also required additional steps ([…] flow rate): (1) PBS supplemented with 32 mM MgCl2 for 120 s, (2) 2.5 M NaCl for 30 s, (3) 0.5% SDS (Desorb 1, Cytiva) for 60 s with carry over controls between.

wt-OMVs = assay: SPR steady-state affinity of reversible (saw-tooth) binding, wt-OMVs; parameters: species or system E. coli; settings: n=4, (SD), read-out: Apparent KD
Protocol: An apparent-KD was measured for the reversible saw-tooth binding profile where polymyxin B was titrated over an OMV surface pre-saturated with the stable binding component (Supplementary Information Fig. S11B). […] No pre-saturation was necessary when using resistant-OMVs or PMBN as these lack the stable component (Fig. 2B, D–F).
Binding and kinetic analysis of SPR-OMV assays
To determine the apparent- KD of the reversible binding event of polymyxin B, single-cycle kinetics were performed as described in Materials and Methods. After OMVs were loaded, 5 µM polymyxin B was injected for 360 sec ([…] flow rate) followed by 120 sec dissociations to saturate the stable-binding population prior to the sample injections. The base-to-peak value of each trace was determined from double-referenced traces (reference 1: - OMVs/ + compound channel; reference 2: + OMVs/ - compound) exported from the Biacore S200 evaluation software into PRISM 9 software. The change in RU with each pulse was plotted over the concentration and the KD determined by fitting a non-linear regression, one-site total function with background parameter set to 0 (GraphPad Prism version 9.3.1 for Mac, GraphPad Software, San Diego, California USA, www.graphpad.com). […]

SMILES	antibacterial activity (E. coli PmrA^G53E)	MIC (E. coli PmrA^G53E) [µM]	antibacterial activity (E. coli mcr1; pBAD-mcr-1)	MIC (E. coli mcr1) [µM]	MIC in presence of rifampicin (E. coli WT+rifampicin) [nM]	SPR binding profile (wild-type E. coli cells)	Kd (wt-OMVs; isolated reversible binding, OMVs pre-saturated with 5 µM polymyxin B) [nM]	outer membrane permeabilization / rifampicin potentiation (E. coli WT+rifampicin)	MIC in presence of rifampicin (E. coli WT+rifampicin; rifampicin 1.56 µM, LB + 0.0005% tween-80, overnight 37 °C) [nM]	Kd (wt-OMVs; no pre-saturation) [nM]
CC[C@H](C)CCCCC(=O)N[C@@H](CCN)C(=O)N[C@H](C(=O)N[C@@H](CCN)C(=O)N[C@H]1CCNC(=O)[C@H]([C@@H](C)O)NC(=O)[C@H](CCN)NC(=O)[C@H](CCN)NC(=O)[C@H](CC(C)C)NC(=O)[C@@H](Cc2ccccc2)NC(=O)[C@H](CCN)NC1=O)[C@@H](C)O [Polymyxin B] (X1-[Dab]T[Dab][Dab][Dab][dF]L[Dab][Dab]T; lactam 4-C (inferred); N-terminus assumed)	resistant to killing by polymyxin B	10	resistant to killing by polymyxin B	2.5 to 5	<0.02	same polymyxin B binding profiles were observed	517	–	–	–
CC(C)C[C@@H]1NC(=O)[C@@H](Cc2ccccc2)NC(=O)[C@H](CCN)NC(=O)[C@@H](NC(=O)[C@H](CCN)NC(=O)[C@@H](N)[C@@H](C)O)CCNC(=O)[C@H]([C@@H](C)O)NC(=O)[C@H](CCN)NC(=O)[C@H](CCN)NC1=O [PMBN] (H-T[Dab][Dab][Dab][dF]L[Dab][Dab]T; lactam 3-C)	–	>40	–	>40	–	exhibited only weak, saw-tooth binding	–	still permeabilizes the outer membrane to rifampicin; also recorded: can still permeabilize the outer membrane	78	288
